Reference: patent US20260072027A1, “Peptides And Method” (Queen Mary University of London, priority 2022, published 2026)

System: CD8+ T-cells (PBMCs)
Assay: In vitro peptide stimulation and T-cell proliferation assay, CD8+
Type: cell-based, human
Settings: for CD8+ mean SI (stimulation index): Study cohort 2
In short: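 CellTrace Violet-labelled fresh PBMCs from type 1 diabetic and healthy donors cultured 7 days in 5% autologous plasma with or without 20 μg/ml insulin peptides. Proliferation measured by flow cytometry as dye dilution within the CD4+ or CD8+ subset. Stimulation index = % proliferation stimulated/% unstimulated.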

Sequence: LVEALYLVCGERGFFYTPKT [insulin B:11-30 native peptide]
- CD8+ T-cell response, subjects with SI > 1 (%) (Controls (N = 11)): (63.6%)
- CD8+ T-cell response, subjects with SI > 3 (%) (Controls (N = 11)): (45.5%)
- CD8+ T-cell response, subjects with SI > 5 (%) (Controls (N = 11)): (27.3%)
- CD8+ T-cell response, subjects with SI > 10 (%) (Controls (N = 11)): (18.2%)
- CD8+ T-cell response, subjects with SI > 1 (%) (Controls (N = 11), listed as Nt-INSP-4): 63.6%
- CD8+ T-cell response, subjects with SI > 1 (%) (Type 1 diabetes (N = 18)): (72.2%)
- CD8+ T-cell response, subjects with SI > 3 (%) (Type 1 diabetes (N = 18)): (55.6%)
- CD8+ T-cell response, subjects with SI > 5 (%) (Type 1 diabetes (N = 18)): (38.9%)
- CD8+ T-cell response, subjects with SI > 10 (%) (Type 1 diabetes (N = 18)): (33.3%)
- CD8+ T-cell response, subjects with SI > 1 (%) (Type 1 diabetes (N = 18), listed as Nt-INSP-4): 72.2%
- CD8+ mean SI (stimulation index) (controls): 5.948±3.125
- CD8+ mean SI (stimulation index) (type 1 diabetes): 405.8±325.5
